Laboratory results as given in patent US7772216B2, “Protein kinase and phosphatase inhibitors and methods for designing them” (The Research Foundation of State University of New York, priority 2001, dated 2010).
Values joined by “and” are separate entries in the source; they are usually repeats but may differ in a detail not shown here. Identical values can stand only once. Like-named read-outs stand apart in the source and are kept apart here. Starred links: 1 amine or outer side, 2 acyl side, 3 side chain; linkers in the order of their positions; H or OH if unused. Non-standard residues stand in square brackets, D forms with d. Residues, ends and D or L forms follow the SMILES beside them. X5 = O=C([C@H](CNS(=O)(=O)O)N[*:1])[*:2]; X6 = NS(=O)(=O)CC[C@H](N[*:1])C(=O)[*:2]; X4 = O=C([C@H](CCCB(O)O)N[*:1])[*:2]; X2 = O=C([C@@H](CB(O)O)N[*:1])[*:2]; X3 = O=C([C@H](CCB(O)O)N[*:1])[*:2]; X1 = O=C([C@H](CB(O)O)N[*:1])[*:2]

Columns and labels:
PKA [1] = biological target: T1, PKA (Homo sapiens, UniProt P17612); experiment: Literature Mimetic PKA assay; assay type: biochemical; details: for Ki: Literature Mimetic (L) conditions, pentapeptide PKA inhibitors; for IC50: Literature Mimetic; for inhibition at 1000 µM: 1000 μM inhibitor
From the text: (§1) The boronic acid inhibitors 21-24 have two Arg's in their sequence also and therefore will bind to the phosphocellulose paper in addition to Kemptamide (although not as consistently or completely due to one less positive charge). Consequently, when analyzed as inhibitors, the amount of phosphorylated Kemptamide produced was not only counted, but also the amount of phosphorylated inhibitor simultaneously produced (e.g. see 26 below). The net result is that distorted IC50 curves are obtained which show net “stimulation” at higher inhibitor concentrations in some cases. […] The underlying substrate behavior of these “inhibitors” makes an accurate measurement of their inhibition potency impossible with the current assay. However, it does appear from the data that homologating the boronic acid functionality out with only CH2 groups (homologations with boronic acid non-peptide Src inhibitors may also be carried out) decreases the binding affinity and ability to function as a substrate.

pp60^c-src = pp60^c-src (Homo sapiens, UniProt P12931); experiment: Cellular Mimetic Src assay (RR-SRC phosphorylation); details: for inhibition at 45 µM: inhibitor at 45 μM; for Ki: Table IV; for inhibition at 1000 µM: read-out: % Inhibition of 2 mM RR-src at Inhibitor Concentration (1 mM); for inhibition at 500 µM: read-out: % Inhibition of 2 mM RR-src at Inhibitor Concentration (500 μM)
pp60^c-src, sequence (P12931 whole entry): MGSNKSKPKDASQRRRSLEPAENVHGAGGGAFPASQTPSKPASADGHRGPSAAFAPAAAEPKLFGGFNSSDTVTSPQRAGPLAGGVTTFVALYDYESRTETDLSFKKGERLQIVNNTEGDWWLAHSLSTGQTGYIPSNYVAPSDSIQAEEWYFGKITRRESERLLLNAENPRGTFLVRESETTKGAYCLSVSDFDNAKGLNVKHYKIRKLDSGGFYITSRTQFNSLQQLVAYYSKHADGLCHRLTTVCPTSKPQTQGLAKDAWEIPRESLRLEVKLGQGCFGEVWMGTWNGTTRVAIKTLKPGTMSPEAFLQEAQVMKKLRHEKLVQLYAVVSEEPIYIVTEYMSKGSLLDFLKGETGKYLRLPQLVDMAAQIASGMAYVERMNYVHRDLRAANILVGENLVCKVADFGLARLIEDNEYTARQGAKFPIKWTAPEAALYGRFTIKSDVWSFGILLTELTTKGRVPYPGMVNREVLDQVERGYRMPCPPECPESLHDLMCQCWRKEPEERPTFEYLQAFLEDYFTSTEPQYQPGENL

PTP-1B = biological target: T2, PTP-1B (Homo sapiens, UniProt P18031); experiment: PTP-1B inhibition; assay type: biochemical; details: % inhibition at 10 micromolar compound
T2 sequence (P18031 1-435): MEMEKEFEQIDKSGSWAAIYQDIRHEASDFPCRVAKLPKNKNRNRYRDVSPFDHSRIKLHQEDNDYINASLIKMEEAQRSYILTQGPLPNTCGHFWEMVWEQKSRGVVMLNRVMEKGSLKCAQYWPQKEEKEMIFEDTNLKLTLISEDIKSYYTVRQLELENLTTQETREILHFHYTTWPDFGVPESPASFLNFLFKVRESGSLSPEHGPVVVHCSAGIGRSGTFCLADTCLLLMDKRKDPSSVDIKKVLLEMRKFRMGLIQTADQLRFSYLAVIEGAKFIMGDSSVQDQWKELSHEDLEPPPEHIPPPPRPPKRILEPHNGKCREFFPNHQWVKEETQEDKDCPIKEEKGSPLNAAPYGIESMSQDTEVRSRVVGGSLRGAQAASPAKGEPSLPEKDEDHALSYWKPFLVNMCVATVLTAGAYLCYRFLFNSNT
From the text: (§2) Blanks for a particular enzyme indicate that inhibition was not found.

EGFRTK = EGFRTK (Homo sapiens, UniProt P00533); experiment: EGFRTK inhibition; assay type: biochemical; details: % inhibition at 10 micromolar compound
EGFRTK, sequence (P00533 25-1210): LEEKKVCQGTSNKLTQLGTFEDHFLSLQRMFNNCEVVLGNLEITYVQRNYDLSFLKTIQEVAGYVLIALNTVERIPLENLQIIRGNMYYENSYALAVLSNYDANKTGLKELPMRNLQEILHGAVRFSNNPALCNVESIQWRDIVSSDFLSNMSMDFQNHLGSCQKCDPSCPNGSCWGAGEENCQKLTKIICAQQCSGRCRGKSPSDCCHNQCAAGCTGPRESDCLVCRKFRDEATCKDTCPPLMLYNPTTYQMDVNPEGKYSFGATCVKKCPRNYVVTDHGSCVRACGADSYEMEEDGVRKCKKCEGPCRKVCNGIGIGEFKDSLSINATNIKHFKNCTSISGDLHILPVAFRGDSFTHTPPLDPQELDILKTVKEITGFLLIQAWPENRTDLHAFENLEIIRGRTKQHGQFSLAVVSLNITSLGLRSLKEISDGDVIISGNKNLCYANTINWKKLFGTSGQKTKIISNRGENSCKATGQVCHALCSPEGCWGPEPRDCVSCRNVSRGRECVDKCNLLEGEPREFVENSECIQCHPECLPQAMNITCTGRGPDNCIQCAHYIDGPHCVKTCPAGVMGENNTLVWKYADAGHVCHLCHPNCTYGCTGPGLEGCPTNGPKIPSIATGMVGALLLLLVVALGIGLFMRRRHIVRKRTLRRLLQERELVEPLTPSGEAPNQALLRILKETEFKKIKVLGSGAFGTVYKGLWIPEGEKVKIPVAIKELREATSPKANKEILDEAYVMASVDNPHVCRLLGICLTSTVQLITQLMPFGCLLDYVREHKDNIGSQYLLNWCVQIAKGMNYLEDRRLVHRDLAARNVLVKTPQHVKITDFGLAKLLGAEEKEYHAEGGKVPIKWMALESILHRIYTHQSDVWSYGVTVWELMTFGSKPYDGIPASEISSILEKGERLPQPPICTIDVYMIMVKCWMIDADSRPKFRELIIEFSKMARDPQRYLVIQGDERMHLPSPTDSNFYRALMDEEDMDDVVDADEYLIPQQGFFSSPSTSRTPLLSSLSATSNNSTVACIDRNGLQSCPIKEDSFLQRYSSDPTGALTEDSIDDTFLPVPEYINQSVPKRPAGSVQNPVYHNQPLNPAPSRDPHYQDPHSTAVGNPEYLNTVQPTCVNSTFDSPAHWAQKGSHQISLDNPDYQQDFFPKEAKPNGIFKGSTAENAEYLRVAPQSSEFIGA
From the text: as §2

PKA [2] = biological target: T1, PKA; experiment: Cellular Mimetic PKA assay; assay type: biochemical; details: for IC50: Cellular Mimetic; for % sti (stimulation) / inhibition at 2000 µM: 2000 μM inhibitor, C
From the text: as §1
Phosphorylated Kemptamide is SEQ. ID. No. 6. Phosphorylated 22 is SEQ. ID. No. 4. […] The graphs show their respective rates and levels of phosphorylation with the typical loss of initial velocity kinetics with time (due to substrate depletion and end product inhibition), analogous to a standard L-Ser substrate such as Kemptamide. The comparison of 21 to 22 shown was done in the same assay run, at identical boronic acid substrate concentrations, and with identical Cellular Mimetic assay solutions so that the cpm's could be directly compared. […] That the boronic acid moiety would be phosphorylated by PKA was surprising, but it is even more surprising that the phosphonic-boronic acid mixed anhydride produced (e.g. 26) was stable enough to survive the pH 7.2/37° C. assay incubation and then be isolated by binding to phosphocellulose paper after acid quenching of the reaction with 10% TCA and washing the phosphocellulose paper with 25 mM phosphoric acid (3×). An STN substructure search was run on mixed anhydrides of phosphoric and boronic acids and found only three references to experiments and theoretical calculations for the analogous putative (but not proven) anhydride formed from boric acid and phosphoric acid as a solid surface impregnated catalyst for the partial oxidation of ethane to acetaldehyde at 823° K. (Zhanpeisov & Otsuka, 1992, Otsuka et al., 1992, Murakami et al., 1990). However, this highly unusual anhydride has never before been synthesized free of a solid surface, isolated, or characterized. Thus, this is a novel enzymatic reaction and chemical entity with interesting possibilities for protein kinase inhibitor designs.

[3] = read-out: % Inhibition of 2 mM RR-src at Inhibitor Concentration (100 μM)
[4] = IC50 μM (cond. L, 4 h preincubation), 4 h preincubation, * very distorted IC50 curve
[5] = 0 h preincubation, read-out: IC50 μM (cond. L, 0 h preincubation)
[6] = 0 h preincubation, * very distorted IC50 curve, read-out: IC50 μM (cond. C, 0 h preincubation)
[7] = IC50 μM (cond. C, 4 h preincubation), 4 h preincubation
[8] = read-out: % Inhibition at 100 μM (std. dev.)

CC[C@H](C)[C@H](NC(=O)[C@H](CNS(=O)(=O)O)NC(=O)CNC(=O)[C@H](CCCNC(=N)N)NC(=O)[C@H](CCCNC(=N)N)NC(C)=O)C(N)=O [Compound 8] (Ac-RRG[X5]I-NH2)
Ki (PKA [1]; Ki): 0.16 µM

Oc1cc(O)cc(/C=C/c2ccc(O)c(O)c2)c1 [Piceatannol, reference compound]
inhibition at 100 µM (pp60^c-src; read-out: % Inhibition at 100 μM (std. dev.), Table IX, hydroxynaphthalene derivatives and published inhibitors): 41%

OB(O)c1cccc(-c2ccccc2)c1
inhibition at 100 µM (pp60^c-src; [3]): 14%

O=C(NCc1ccc(Cl)cc1)c1[nH]c2ccc(F)cc2c1-c1ccccc1 [Compound 2gg]
PTP-1B @ 10 μm (PTP-1B): 12%

O=C(NCc1cccc(O)c1)c1cc2cc(O)ccc2[nH]1 [Cmpd 2k]
inhibition at 45 µM (pp60^c-src; [ATP] 200 μM): 46%
inhibition at 45 µM (pp60^c-src; [ATP] 1,000 μM): 41%
inhibition at 100 µM (pp60^c-src; read-out: % Inhibition at 100 μM (std. dev.), Table X, hydroxyindole derivatives): 74%

O=C(Nc1cccc(CO)c1)c1cc2cc(F)ccc2[nH]1 [Compound 1yyy]
EGFRTK @ 10 μm (EGFRTK): 11%

Ac-RRGAI-NH2 [Compound 20]
IC50 (PKA [1]; [4]): 417 µM
Ki (PKA [1]; read-out: Ki): ~9 µM and 9 µM
IC50 (PKA [1]; [5]): 278 µM
Ki (PKA [2]; Cellular Mimetic (C) conditions): 25 µM
IC50 (PKA [2]; [6]): 41 µM
IC50 (PKA [2]; [7]): 50 µM

O=C(NCCCCCCO)c1cc2cc(F)ccc2[nH]1 [Compound 1qqqq]
EGFRTK @ 10 μm (EGFRTK): 18%

OB(O)c1ccc2ccccc2c1 [Compound 27, 2-naphthalene boronic acid]
IC50 (pp60^c-src): 950 µM
Ki (pp60^c-src): ~554 µM and 554 µM
inhibition at 100 µM (pp60^c-src; [3]): 13%
inhibition at 1000 µM (pp60^c-src): 59%

OB(O)c1ccc(-c2ccccc2)cc1
inhibition at 100 µM (pp60^c-src; [3]): 13%

COC(=O)c1cc2ccc(B(O)O)cc2cn1
inhibition at 500 µM (pp60^c-src): 13%

CC[C@H](C)[C@H](NC(=O)[C@H](CCCB(O)O)NC(=O)CNC(=O)[C@H](CCCNC(=N)N)NC(=O)[C@H](CCCNC(=N)N)NC(C)=O)C(N)=O (Ac-RRG[X4]I-NH2)
inhibition at 1000 µM (PKA [1]; L, 0 h preincubation): 33%
inhibition at 1000 µM (PKA [1]; L, 4 h preincubation): 44%
% sti (stimulation) (PKA [2]; 0 h preincubation): 2000 μM 6% sti
IC50 (PKA [2]; [7]): 1730 µM

N=c1oc2c(O)cccc2cc1C(=O)Nc1cccc(O)c1 [Compound 50, reference compound]
% Inhibition of 2 mM RR-src at Inhibitor Concentration (100 μM) (pp60^c-src; Table V, inhibitor 100 μM): 30 (100 μM) %
inhibition at 100 µM (pp60^c-src; [3]): 30%

Oc1cc(O)cc(/C=C/c2ccc(O)c(O)c2)c1 [drawing 66, piceatannol, reference compound]
inhibition at 100 µM (pp60^c-src; read-out: % Inhibition of 2 mM RR-src at Inhibitor Concentration (100 μM), Table V, inhibitor 100 μM): 41%

O=C(N[C@@H](c1ccccc1)[C@@H](O)c1ccccc1)c1cc2cc(F)ccc2[nH]1 [Compound 1dd]
EGFRTK @ 10 μm (EGFRTK): 41%

O=C(NCc1ccc(F)cc1C(F)(F)F)c1[nH]c2ccc(F)cc2c1-c1ccccc1 [Compound 2hh]
EGFRTK @ 10 μm (EGFRTK): 12%

O=C(N[C@H](c1ccccc1)[C@H](O)c1ccccc1)c1cc2cc(F)ccc2[nH]1 [Compound 1cc]
EGFRTK @ 10 μm (EGFRTK): 19%

COC(=O)c1cc2ccc(O)cc2cc1O
inhibition at 100 µM (pp60^c-src; [3]): 47%

Cc1ccccc1CNC(=O)c1cc2cc(F)ccc2[nH]1 [Compound 1ffff]
EGFRTK @ 10 μm (EGFRTK): 12%

N=c1oc2c(O)cccc2cc1C(=O)Nc1cccc(O)c1 [Iminochromene 9TA, reference compound]
% Inhibition at 100 μM (std. dev.) (pp60^c-src; Table IX, hydroxynaphthalene derivatives and published inhibitors): 30 (+/−15) %
inhibition at 100 µM (pp60^c-src; [8]): 30%

CC[C@H](C)[C@H](NC(=O)[C@H](CB(O)O)NC(=O)CNC(=O)[C@H](CCCNC(=N)N)NC(=O)[C@H](CCCNC(=N)N)NC(C)=O)C(N)=O [Compound 21] (Ac-RRG[X1]I-NH2)
inhibition at 500 µM (PKA [1]; 500 μM inhibitor, L, 4 h preincubation): 34%
Ki (PKA [1]; read-out: Ki): ~9 µM
IC50 (PKA [1]; [5]): 249 µM
inhibition at 100 µM (pp60^c-src; [8]): 54%
% sti (stimulation) (PKA [2]; 4 h preincubation): 19%
% sti (stimulation) (PKA [2]; 4 h preincubation, listed as drawing 32): *2000 μM 19% sti
IC50 (PKA [2]; [6]): 764 µM

COc1cccc([C@H](C)NC(=O)c2cc3cc(F)ccc3[nH]2)c1 [Compound 1aa]
EGFRTK @ 10 μm (EGFRTK): 12%

CC[C@H](C)[C@H](NC(=O)[C@H](CCB(O)O)NC(=O)CNC(=O)[C@H](CCCNC(=N)N)NC(=O)[C@H](CCCNC(=N)N)NC(C)=O)C(N)=O [Compound 23] (Ac-RRG[X3]I-NH2)
IC50 (PKA [1]; [4]): 133 µM
IC50 (PKA [1]; [5]): 398 µM
inhibition at 2000 µM (PKA [2]; 0 h preincubation): 16%
% sti (stimulation) (PKA [2]; 4 h preincubation): 5%
inhibition at 2000 µM (PKA [2]; 4 h preincubation): 5%

O=C(Nc1cccc(O)c1)c1ccc2cc(O)ccc2c1
inhibition at 100 µM (pp60^c-src; [3]): 45%

O=C(NCc1cc(Br)ccc1F)c1[nH]c2ccc(F)cc2c1-c1ccccc1 [Compound 2ll]
EGFRTK @ 10 μm (EGFRTK): 10%

CC[C@H](C)[C@H](NC(=O)[C@H](CCS(N)(=O)=O)NC(=O)CNC(=O)[C@H](CCCNC(=N)N)NC(=O)[C@H](CCCNC(=N)N)NC(C)=O)C(N)=O [Compound 7] (Ac-RRG[X6]I-NH2)
Ki (PKA [1]; read-out: Ki): 300 µM

O=C(NCc1cc(OCc2ccccc2)cc(OCc2ccccc2)c1)c1cc2cc(F)ccc2[nH]1 [Compound 1iiii]
EGFRTK @ 10 μm (EGFRTK): 12%

O=C(NCc1ccc(O)c(O)c1)c1cc2cc(F)ccc2[nH]1 [Compound 1gggg]
EGFRTK @ 10 μm (EGFRTK): 25%

O=C(NCc1cccc(I)c1)c1cc2cc(F)ccc2[nH]1 [Compound 1ff]
EGFRTK @ 10 μm (EGFRTK): 24%

CCCOc1ccc(CNC(=O)c2cc3cc(F)ccc3[nH]2)cc1O [Compound 1nnnn]
EGFRTK @ 10 μm (EGFRTK): 17%

O=C(NCc1ccccc1)c1cc2cc(F)ccc2[nH]1 [Compound 1bb]
EGFRTK @ 10 μm (EGFRTK): 19%

COc1ccc(CNC(=O)c2cc3cc(F)ccc3[nH]2)cc1 [Compound 1ee]
EGFRTK @ 10 μm (EGFRTK): 16%

CC[C@H](C)[C@H](NC(=O)[C@@H](CB(O)O)NC(=O)CNC(=O)[C@H](CCCNC(=N)N)NC(=O)[C@H](CCCNC(=N)N)NC(C)=O)C(N)=O [Compound 22] (Ac-RRG[X2]I-NH2)
IC50 (PKA [1]; [4]): 65 µM
IC50 (PKA [1]; [5]): 81 µM
% sti (stimulation) (PKA [2]; 4 h preincubation): 71%
% sti (stimulation) (PKA [2]; 4 h preincubation, listed as drawing 33): *2000 μM 71% sti
IC50 (PKA [2]; [6]): 1750 µM

COC(=O)c1cc2cc(O)ccc2[nH]1
inhibition at 500 µM (pp60^c-src): 40%

O=C(NCc1ccc(Br)cc1)c1cc2cc(F)ccc2[nH]1 [Compound 1kkkk]
EGFRTK @ 10 μm (EGFRTK): 30%

O=S(=O)(O)Nc1ccc2ccccc2c1 [Compound 28]
IC50 (pp60^c-src): 1600 µM
Ki (pp60^c-src): 963 µM
inhibition at 1000 µM (pp60^c-src): 31%
